Drawing on patent US9765092B2, “Tricyclic piperidine compounds” (ACTELION PHARMACEUTICALS LTD, priority 2013, dated 2017), this text covers IC50 for 25 compounds.

For this experiment, the target named is human TPH1 (Homo sapiens (Human), UniProt P17752). As to the kind of experiment: Biochemical in vitro assay using fluorescence readout (TPH1 inhibition).
[1] abbreviates: human TPH1, fluorescence readout.

Chain of human TPH1 (P17752 whole entry): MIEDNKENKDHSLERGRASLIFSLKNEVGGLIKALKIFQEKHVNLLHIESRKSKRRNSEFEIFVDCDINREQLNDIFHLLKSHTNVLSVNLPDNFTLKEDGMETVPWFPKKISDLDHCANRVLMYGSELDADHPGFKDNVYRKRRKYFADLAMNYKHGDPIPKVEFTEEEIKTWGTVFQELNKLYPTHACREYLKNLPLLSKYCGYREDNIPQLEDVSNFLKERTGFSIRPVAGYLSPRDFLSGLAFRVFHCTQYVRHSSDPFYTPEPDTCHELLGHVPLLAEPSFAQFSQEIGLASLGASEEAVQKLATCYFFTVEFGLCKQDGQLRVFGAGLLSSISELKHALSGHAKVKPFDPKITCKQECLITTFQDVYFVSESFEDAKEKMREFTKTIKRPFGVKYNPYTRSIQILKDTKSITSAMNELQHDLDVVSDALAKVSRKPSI

For the compound `CCc1nc(NS(C)(=O)=O)ccc1OCC(=O)N1CCc2nc3sc(C)nn3c2C1c1ccc(C)c(F)c1F` (stereo not shown) [Example 1.61.5, N-(5-(2-(5-(2,3-difluoro-4-methylphenyl)-2-methyl-7,8-dihydro-[1,3,4]thiadiazolo[2′,3′:2,3]imidazo[4,5-c]pyridin-6(5H)-yl)-2-oxoethoxy)-6-ethylpyridin-2-yl)methanesulfonamide], under setting [1], the IC50 (in general, the concentration needed to halve the response being measured) is 9 nM.

The compound `CCc1nc(NS(C)(=O)=O)ccc1OCC(=O)N1CCc2nc3sc(C)nn3c2C1c1cc(F)c(C)cc1F` (stereo not shown) [Example 1.74.1, N-(5-(2-(5-(2,5-difluoro-4-methylphenyl)-2-methyl-7,8-dihydro-[1,3,4]thiadiazolo[2′,3′:2,3]imidazo[4,5-c]pyridin-6(5H)-yl)-2-oxoethoxy)-6-ethylpyridin-2-yl)methanesulfonamide] displayed an IC50 under setting [1] of 25 nM.

`CCc1nc(C)ccc1OCC(=O)N1CCc2nc3sc(C)nn3c2C1c1cnc(C2CC2)nc1` (stereo not shown) [Example 1.10.1, 1-(5-(2-cyclopropylpyrimidin-5-yl)-2-methyl-7,8-dihydro-[1,3,4]thiadiazolo[2′,3′:2,3]imidazo[4,5-c]pyridin-6(5H)-yl)-2-((2-ethyl-6-methylpyridin-3-yl)oxy)ethanone]: the IC50 under setting [1] is 187 nM. This IC50 is about 7.5-fold higher than that of the compound before.

Regarding `Cc1nn(C)c(C)c1C1c2c(nc3sccn23)CCN1C(=O)COc1ccc(C(F)(F)F)cc1Cl` (stereo not shown) [Example 6.15.2, 2-(2-chloro-4-(trifluoromethyl)phenoxy)-1-(5-(1,3,5-trimethyl-1H-pyrazol-4-yl)-7,8-dihydrothiazolo-[2′,3′:2,3]imidazo[4,5-c]pyridin-6(5H)-yl)ethanone], half-maximal inhibition under setting [1] (IC50) was put at 48 nM.

Take `Cc1cnc([C@H]2c3c(nc4sc(C)nn34)CCN2C(=O)COc2ccc(N(C)S(C)(=O)=O)nc2Cl)c(F)c1` [Example 1.31.15, (R)-N-(6-chloro-5-(2-(5-(3-fluoro-5-methylpyridin-2-yl)-2-methyl-7,8-dihydro-[1,3,4]thiadiazolo[2′,3′:2,3]-imidazo[4,5-c]pyridin-6(5H)-yl)-2-oxoethoxy)pyridin-2-yl)-N-methylmethanesulfonamide]: the IC50 under setting [1] turned out to be 9 nM.

For the setting “full length human TPH1, 40 μM L-tryptophan, 15° C., 60 minutes, fluorescence at 540 nm, mean if determined several times”, `Cc1nn2c3c(nc2s1)CCN(C(=O)COc1ccc(N2CC4CC2CO4)nc1Cl)C3c1ccc(Cl)cc1F` (stereo not shown) [Example 1.4.33, 2-((6-(2-Oxa-5-azabicyclo[2.2.1]heptan-5-yl)-2-chloropyridin-3-yl)oxy)-1-(5-(4-chloro-2-fluorophenyl)-2-methyl-7,8-dihydro-[1,3,4]thiadiazolo[2′,3′:2,3]imidazo[4,5-c]pyridin-6(5H)-yl)ethanone] showed an IC50 of 2 nM.

On to `CNC(=O)c1ccc(OCC(=O)N2CCc3nc4sc(C)nn4c3C2c2ncc(C)cc2F)c(Cl)n1` (stereo not shown) [Example 1.31.6, 6-chloro-5-(2-(5-(3-fluoro-5-methylpyridin-2-yl)-2-methyl-7,8-dihydro-[1,3,4]thiadiazolo[2′,3′:2,3]imidazo[4,5-c]pyridin-6(5H)-yl)-2-oxoethoxy)-N-methylpicolinamide], for which the IC50 under setting [1] came out at 7 nM.

As for `Cc1cc(Cl)ccc1OCC(=O)N1CCc2nc3sccn3c2C1c1cnn(-c2ccccc2)c1` (stereo not shown) [Example 6.13.7, 2-(4-chloro-2-methylphenoxy)-1-(5-(1-phenyl-1H-pyrazol-4-yl)-7,8-dihydrothiazolo[2′,3′:2,3]imidazo[4,5-c]pyridin-6(5H)-yl)ethanone], the IC50 under setting [1] came out at 26 nM.

The compound `Cc1nn2c3c(nc2s1)CCN(C(=O)COc1c(Cl)nc(N2CCOCC2)c(F)c1F)C3c1ncc(C2CC2)cc1F` (stereo not shown) [Example 1.14.11, 2-((2-chloro-4,5-difluoro-6-morpholinopyridin-3-yl)oxy)-1-(5-(5-cyclopropyl-3-fluoropyridin-2-yl)-2-methyl-7,8-dihydro-[1,3,4]thiadiazolo[2′,3′:2,3]imidazo[4,5-c]pyridin-6(5H)-yl)ethanone] registered an IC50 under setting [1] of 122 nM.

Compound `CS(=O)(=O)Nc1ccc(OCC(=O)N2CCc3nc4scnn4c3C2c2ccc(Cl)cc2F)c(Cl)n1` (stereo not shown) [Example 2.1.1, N-(6-chloro-5-(2-(5-(4-chloro-2-fluorophenyl)-7,8-dihydro-[1,3,4]thiadiazolo[2′,3′:2,3]imidazo[4,5-c]-pyridin-6(5H)-yl)-2-oxoethoxy)pyridin-2-yl)methanesulfonamide] displayed an IC50 under setting [1] of 11 nM.

Compound `O=C(COc1cccc(C(F)(F)F)c1Cl)N1CCc2nc3sccn3c2C1c1cnn(-c2ccccc2)c1` (stereo not shown) [Example 6.13.1, 2-(2-chloro-3-(trifluoromethyl)phenoxy)-1-(5-(1-phenyl-1H-pyrazol-4-yl)-7,8-dihydrothiazolo[2′,3′:2,3]-imidazo[4,5-c]pyridin-6(5H)-yl)ethanone] gave an IC50 under setting [1] of 75 nM.

`Cc1nn2c3c(nc2s1)CCN(C(=O)COc1ccc(C(F)(F)F)cc1Cl)C3c1sccc1F` (stereo not shown) [Example 1.23.5, 2-(2-chloro-4-(trifluoromethyl)phenoxy)-1-(5-(3-fluorothiophen-2-yl)-2-methyl-7,8-dihydro-[1,3,4]thiadiazolo[2′,3′:2,3]imidazo[4,5-c]pyridin-6(5H)-yl)ethanone]: 9 nM corresponded to half-maximal inhibition under setting [1] (IC50).

The compound `CCc1ncccc1OCC(=O)N1CCc2nc3sc(C)nn3c2C1c1cc(CN(C)C)cs1` (stereo not shown) [Example 1.8.2, 1-(5-(4-((dimethylamino)methyl)thiophen-2-yl)-2-methyl-7,8-dihydro-[1,3,4]thiadiazolo[2′,3′:2,3]imidazo[4,5-c]pyridin-6(5H)-yl)-2-((2-ethylpyridin-3-yl)oxy)ethanone] came in with an IC50 under setting [1] of 140 nM.

As for `COC(=O)c1cnc(C2c3c(nc4sc(C)nn34)CCN2C(=O)COc2ccc(N3CC(F)(F)C3)nc2Cl)s1` (stereo not shown) [Example 1.28.4, Methyl 2-(6-(2-((2-chloro-6-(3,3-difluoroazetidin-1-yl)pyridin-3-yl)oxy)acetyl)-2-methyl-5,6,7,8-tetrahydro-[1,3,4]thiadiazolo[2′,3′:2,3]imidazo[4,5-c]pyridin-5-yl)thiazole-5-carboxylate], under setting [1], the IC50 was 17 nM.

`Cc1ncc(OCC(=O)N2CCc3nc4sc(C)nn4c3C2c2ccc(C3CC3)cc2F)c(C)n1` (stereo not shown) [Example 1.6.27, 1-(5-(4-cyclopropyl-2-fluorophenyl)-2-methyl-7,8-dihydro-[1,3,4]thiadiazolo[2′,3′:2,3]imidazo[4,5-c]pyridin-6(5H)-yl)-2-((2,4-dimethylpyrimidin-5-yl)oxy)ethanone] came in with an IC50 under setting [1] of 161 nM.

In the case of `Cc1nn2c3c(nc2s1)CCN(C(=O)COc1ccc(CN2CCOCC2)nc1Cl)C3c1cccnc1F` (stereo not shown) [Example 1.2.1, 2-((2-chloro-6-(morpholinomethyl)pyridin-3-yl)oxy)-1-(5-(2-fluoropyridin-3-yl)-2-methyl-7,8-dihydro-[1,3,4]thiadiazolo[2′,3′:2,3]imidazo[4,5-c]pyridine-6(5H)yl) ethanone], the midpoint of inhibition under setting [1], the IC50, lay at 208 nM.

Take `CCc1nc(NS(C)(=O)=O)ccc1OCC(=O)N1CCc2nc3sc(C(F)(F)F)nn3c2C1c1ncc(C)cc1F` (stereo not shown) [Example 5.2.2, N-(6-ethyl-5-(2-(5-(3-fluoro-5-methylpyridin-2-yl)-2-(trifluoromethyl)-7,8-dihydro-[1,3,4]thiadiazolo[2′,3′:2,3]imidazo[4,5-c]pyridin-6(5H)-yl)-2-oxoethoxy)pyridin-2-yl)methanesulfonamide]: under setting [1], the IC50 came to 42 nM.

On to `Cc1cnc(C2c3c(nc4sc(C)nn34)CCN2C(=O)COc2ccc(N3CCOCC3)nc2Cl)c(F)c1` (stereo not shown) [Example 1.31.2, 2-((2-chloro-6-morpholinopyridin-3-yl)oxy)-1-(5-(3-fluoro-5-methylpyridin-2-yl)-2-methyl-7,8-dihydro-[1,3,4]thiadiazolo [2′,3′:2,3]imidazo[4,5-c]pyridin-6(5H)-yl)ethanone], for which, under setting [1], the concentration for half-maximal inhibition (IC50) is 5 nM.

On to `CNC(=O)c1ccc(OCC(=O)N2CCc3nc4sc(C)nn4c3C2c2sc(C(=O)N(C)C)cc2F)c(Cl)n1` (stereo not shown) [Example 1.24.10, 6-chloro-5-(2-(5-(5-(dimethylcarbamoyl)-3-fluoro-thiophen-2-yl)-2-methyl-7,8-dihydro-[1,3,4]thiadiazolo[2′,3′:2,3]imidazo[4,5-c]pyridin-6(5H)-yl)-2-oxoethoxy)-N-methylpicolinamide], for which the half-inhibitory concentration (IC50) under setting [1] was determined as 20 nM.

In the case of `Cc1nn2c3c(nc2s1)CCN(C(=O)COc1ccc(C(=O)N(C)C)nc1Cl)C3c1cccc(F)c1F` (stereo not shown) [Example 1.62.1, 6-chloro-5-(2-(5-(2,3-difluorophenyl)-2-methyl-7,8-dihydro-[1,3,4]thiadiazolo[2′,3′:2,3]imidazo[4,5-c]pyridin-6(5H)-yl)-2-oxoethoxy)-N,N-dimethylpicolinamide], the half-inhibitory concentration (IC50) under setting [1] worked out at 65 nM.

With `Cc1nn2c3c(nc2s1)CCN(C(=O)COc1ccc(N2CCOCC2)nc1Cl)C3c1ncccc1F` (stereo not shown) [Example 1.35.1, 2-((2-chloro-6-morpholinopyridin-3-yl)oxy)-1-(5-(3-fluoropyridin-2-yl)-2-methyl-7,8-dihydro-[1,3,4]thiadiazolo [2′,3′:2,3]imidazo[4,5-c]pyridin-6(5H)-yl)ethanone], under setting [1], inhibition was half-maximal at 6 nM (IC50).

`Cc1ccccc1OCC(=O)N1CCc2nc3sccn3c2C1c1nc2ccccc2s1` (stereo not shown) [Example 6.12.2, 1-(5-(benzo[d]thiazol-2-yl)-7,8-dihydrothiazolo-[2′,3′:2,3]imidazo[4,5-c]pyridin-6(5H)-yl)-2-(o-tolyloxy)-ethanone] came in with a 50% inhibitory concentration (IC50) under setting [1] of 115 nM.

On to `Cc1ccccc1OCC(=O)N1CCc2nc3sccn3c2C1c1cnn(-c2ccccc2)c1` (stereo not shown) [Example 6.13.4, 1-(5-(1-phenyl-1H-pyrazol-4-yl)-7,8-dihydrothiazolo-[2′,3′:2,3]imidazo[4,5-c]pyridin-6(5H)-yl)-2-(o-tolyl-oxy)ethanone], for which half-maximal inhibition under setting [1] (IC50) was put at 236 nM. This IC50 is about 2.1-fold higher than that of the compound before.

As for `O=C(COc1ccc(N2CCOCC2)cc1Cl)N1CC=C2N=C3SC=CN3C2[C@H]1c1ccc(Cl)cc1F` (stereo partly drawn) [Example 6.4.2, 1-((5R)-5-(4-chloro-2-fluorophenyl)-4a,5-dihydro-thiazolo[2′,3′:2,3]imidazo[4,5-c]pyridin-6(7H)-yl)-2-(2-chloro-4-morpholinophenoxy)ethanone], 4 nM corresponded to half-maximal inhibition under setting [1] (IC50).

With `Cc1noc(C)c1C1c2c(nc3sccn23)CCN1C(=O)COc1ccc(Cl)cc1Cl` (stereo not shown) [Example 6.5.2, 2-(2,4-dichlorophenoxy)-1-(5-(3,5-dimethylisoxazol-4-yl)-7,8-dihydrothiazolo[2′,3′:2,3]imidazo[4,5-c]pyridin-6(5H)-yl)ethanone], the IC50 under setting [1] was found to be 61 nM.
